From US9284302B2, “Cyclobutyl benzimidazoles as PDE 10 inhibitors” (Merck Sharp & Dohme Corp., priority 2012, dated 2016)

Target: human PDE10A2 (Homo sapiens (Human), UniProt Q9Y233)
Test: PDE10 fluorescence polarization (IMAP FP) inhibition assay
Assay type: biochemical
Settings: apparent inhibition constant; FAM-labeled cAMP substrate 50 nM, room temperature; read-out: PDE10a Ki
Description: The activity of the compounds in accordance with the present invention as PDE10 inhibitors may be readily determined without undue experimentation using a fluorescence polarization (FP) methodology that is well known in the art (Huang, W., et al., J. Biomol Screen, 2002, 7: 215).
In a typical experiment the PDE10 inhibitory activity of the compounds of the present invention was determined in accordance with the following experimental method. PDE10A2 was amplified from human fetal brain cDNA (Clontech, Mountain View, Calif.) using a forward primer corresponding to nucleotides 56-77 of human PDE10A2 (Accession No. AF127480, Genbank Identifier 4894716), containing a Kozak consensus sequence, and a reverse primer corresponding to nucleotides 2406-2413 of human PDE10A2 (Accession No. AF127480, Genbank Identifier 4894716). Amplification with Easy-A polymerase (Stratagene, La Jolla, Calif.) was 95° C. for 2 minutes followed by thirty three cycles of 95° C. for 40 seconds, 55° C. for 30 seconds, and 72° C. for 2 minutes 48 seconds. Final extension was 72° C. for 7 minutes. The PCR product was TA cloned into pcDNA3.2-TOPO (Invitrogen, Carlsbad, Calif.) according to standard protocol. AD293 cells with 70-80% confluency were transiently transfected with human PDE10A2/pcDNA3.2-TOPO using Lipofectamine 2000 according to manufacturer specifications (Invitrogen, Carlsbad, Calif.). Cells were harvested 48 hours post-transfection and lysed by sonication (setting 3, 10×5 sec pulses) in a buffer containing 20 mM HEPES, 1 mM EDTA and protease inhibitor cocktail (Roche). Lysate was collected by centrifugation at 75,000 xg for 20 minutes. Supernatant containing the cytoplasmic fraction was used for evaluation of PDE10A2 activity. The fluorescence polarization assay for cyclic nucleotide phosphodiesterases was performed using an IMAP® FP kit supplied by Molecular Devices, Sunnyvale, Calif. (product #R8139). IMAP® technology has been applied previously to phosphodiesterase assays (Huang, W., et al., J. Biomol Screen, 2002, 7: 215). Assays were performed at room temperature in 384-well microtiter plates with an incubation volume of 20.2 μL. Solutions of test compounds were prepared in DMSO and serially diluted with DMSO to yield 8 μL of each of 10 solutions differing by 3-fold in concentration, at 32 serial dilutions per plate. […] 0% of inhibition is determined by using DMSO (1% final concentrations). […]

human PDE10A2, sequence (Q9Y233 267-1055): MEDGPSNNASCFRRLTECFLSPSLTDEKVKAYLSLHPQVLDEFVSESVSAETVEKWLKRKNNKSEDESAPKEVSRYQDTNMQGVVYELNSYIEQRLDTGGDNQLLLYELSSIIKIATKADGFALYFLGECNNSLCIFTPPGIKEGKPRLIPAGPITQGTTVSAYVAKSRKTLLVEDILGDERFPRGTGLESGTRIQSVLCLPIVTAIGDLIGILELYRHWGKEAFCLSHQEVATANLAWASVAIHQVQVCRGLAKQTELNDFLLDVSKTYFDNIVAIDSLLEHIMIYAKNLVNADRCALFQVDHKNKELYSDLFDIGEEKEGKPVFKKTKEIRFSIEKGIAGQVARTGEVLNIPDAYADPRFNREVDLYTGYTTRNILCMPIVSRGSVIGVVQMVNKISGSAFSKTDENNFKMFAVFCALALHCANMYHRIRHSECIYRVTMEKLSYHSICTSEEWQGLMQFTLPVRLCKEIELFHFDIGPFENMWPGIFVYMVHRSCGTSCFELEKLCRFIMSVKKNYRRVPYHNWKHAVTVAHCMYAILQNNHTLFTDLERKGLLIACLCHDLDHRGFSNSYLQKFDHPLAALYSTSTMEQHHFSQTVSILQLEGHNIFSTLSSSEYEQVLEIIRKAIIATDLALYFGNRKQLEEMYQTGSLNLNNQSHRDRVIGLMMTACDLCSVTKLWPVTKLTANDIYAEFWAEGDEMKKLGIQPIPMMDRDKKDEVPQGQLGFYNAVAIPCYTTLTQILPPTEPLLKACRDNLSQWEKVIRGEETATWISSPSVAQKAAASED

Compound | Ki
Cc1nc(-n2nc(C)nc2C)cc(C2(F)CC(c3nc4ccccc4n3C)C2)n1 (stereo not shown) [Example 2, 2-(3-(6-(3,5-dimethyl-1H-1,2,4-triazol-1-yl)-2-methylpyrimidin-4-yl)-3-fluorocyclobutyl)-1-methyl-1H-benzo[d]imidazole] | 88 nM
Cc1nc(-n2nc(C)nc2C)cc([C@H]2C[C@@H](c3nc4ccccc4n3C)C2)n1 [Example 3, 2-((cis)-3-(6-(3,5-dimethyl-1H-1,2,4-triazol-1-yl)-2-methylpyrimidin-4-yl)cyclobutyl)-1-methyl-1H-benzo[d]imidazole] | 2.8 nM
Cc1nc(-n2nc(C)nc2C)cc([C@H]2C[C@H](c3nc4ccccc4n3C)C2)n1 [Example 4, 2-((trans)-3-(6-(3,5-dimethyl-1H-1,2,4-triazol-1-yl)-2-methylpyrimidin-4-yl)cyclobutyl)-1-methyl-1H-benzo[d]imidazole] | 4.7 nM
Cc1nc(-n2nc(C)nc2C)cc(C2(O)CC(c3nc4ccccc4n3C)C2)n1 (stereo not shown) [Example 1, 1-(6-(3,5-dimethyl-1H-1,2,4-triazol-1-yl)-2-methylpyrimidin-4-yl)-3-(1-methyl-1H-benzo[d]imidazol-2-yl)cyclobutanol] | > 75 nM
